Activity and Crop_yield data for 1 compound are collected here from ChEMBL document CHEMBL3044868, “Effect of pre-sowing and pre-emergence glyphosate applications on weedsin stale seedbed cotton” (2009).

Molecules are shown by their SMILES.

What all share (assay type): functional
The test system of assay [1] is Gossypium hirsutum. Description: Increase of boll weight in Gossypium hirsutum (cotton) at 2.88 kg a.i./ha as pre-emergence treatment 3 to 4 days after sowing with seedbed preparation measured during harvest time.
For assay [2], the system named is Gossypium hirsutum. Description: Increase of boll weight in Gossypium hirsutum (cotton) at 2.88 kg a.i./ha as pre-emergence treatment 3 to 4 days after sowing without seedbed preparation measured during harvest time.
For assay [3], the system named is Gossypium hirsutum. Description: Increase of plant height in Gossypium hirsutum (cotton) at 2.88 kg a.i./ha as pre-emergence treatment 3 to 4 days after sowing without seedbed preparation measured during harvest time.
The subject of assay [4] is Gossypium hirsutum. Description: Increase of seed cotton yield in Gossypium hirsutum (cotton) at 2.88 kg a.i./ha sprayed at 2 to 3 days before sowing without seedbed preparation measured during harvest time.
In assay [5] the test system is Gossypium hirsutum. The experiment in a line: Increase of boll weight in Gossypium hirsutum (cotton) at 2.88 kg a.i./ha sprayed at 2 to 3 days before sowing without seedbed preparation measured during harvest time.
For assay [6], the system named is Gossypium hirsutum. The experiment in a line: Increase of cotton cover in Gossypium hirsutum (cotton) at 2.88 kg a.i./ha as pre-emergence treatment 3 to 4 days after sowing with seedbed preparation measured 2 weeks after emergence.
Assay [7] has as its system Gossypium hirsutum. Description: Increase of seed cotton yield in Gossypium hirsutum (cotton) at 2.88 kg a.i./ha as pre-emergence treatment 3 to 4 days after sowing with seedbed preparation measured during harvest time.
Assay [8] relates to Gossypium hirsutum. Description: Increase of seed cotton yield in Gossypium hirsutum (cotton) at 2.88 kg a.i./ha as pre-emergence treatment 3 to 4 days after sowing without seedbed preparation measured during harvest time.
For assay [9], the system named is Gossypium hirsutum. Description: Increase of cotton cover in Gossypium hirsutum (cotton) at 2.88 kg a.i./ha sprayed at 2 to 3 days before sowing without seedbed preparation measured 2 weeks after emergence.
Assay [10] concerns Gossypium hirsutum. The experiment in a line: Increase of cotton cover in Gossypium hirsutum (cotton) at 2.88 kg a.i./ha as pre-emergence treatment 3 to 4 days after sowing without seedbed preparation measured 2 weeks after emergence.
Assay [11] deals with Gossypium hirsutum. Description: Increase of plant height in Gossypium hirsutum (cotton) at 2.88 kg a.i./ha as pre-emergence treatment 3 to 4 days after sowing with seedbed preparation measured during harvest time.
Assay [12] deals with Gossypium hirsutum. Description: Increase of plant height in Gossypium hirsutum (cotton) at 2.88 kg a.i./ha sprayed at 2 to 3 days before sowing without seedbed preparation measured during harvest time.

Regarding `O=C(O)CNCP(=O)(O)O` [GLYPHOSATE], the Activity came out at 4.3 g in assay [1]; 5.9 g in [2]; 91.1 cm in assay [3]; 5.2 g in assay [5]; 7% in assay [6]; 11.7% in assay [9]. For the same compound, the Activity in assay [10] was found to be 16.3%; in assay [11], 91.5 cm; in assay [12] it was 90.7 cm. Also, the values for the Crop_yield in assay [4], in [7] and in assay [8] were 6 tons/ha, 4.8 tons/ha and 5.5 tons/ha, respectively.
